Experimental data as given in patent US11369697B2, “Liposome nanoparticles for tumor magnetic resonance imaging” (UNITED KINGDOM RESEARCH AND INNOVATION, priority 2009, dated 2022).

Assay: T1 relaxation of Gd lipids in aqueous solution (MRI efficacy)
Assay type: physicochemical
Conditions: 0.5 mM, 4.7 T
Method: In order to establish the relaxation properties of Gd.DOTA.DSA, MRI studies of the lipid in aqueous solution were performed and T1 values and relaxivity parameters generated in milliseconds. […] A standard T1 saturation recovery method (spin echo sequence) was used to determine T1 values (according to Eq. 1), where x is TR (time to repeat), and Si is the measured signal for a given TR. Si=S0(1−e^(−x/T^1^))
MRI Analysis of Gd.DOTA.DSA For T1 analysis, Gd.DOTA.DSA 4, Gd.DTPA.BSA, and controls of the metal free compound, and Magnevist (Schering A G, Germany) were added to water to give a final concentration of 0.5 mM. The solutions (200 μL) were placed in eppendorf tubes and T1 relaxation values measured on a 4.7 T Varian MR scanner at ambient temperature. For relaxivity measurements; gadolinium liposome formulations were prepared in order to obtain five different gadolinium concentrations between […] in 200 μL of distilled water and the molar relaxivity r1 (mM^−1 s^−1) determined. T1 values were obtained using saturation recovery experiments performed with a standard spin-echo sequence and a 2 mm single slice acquisition (TR=50, 100, 200, 300, 500, 700, 1200, 3000, 5000, 7000 ms, TE=15 ms), number of signal averages; 2, FOV; 70×70 mm^2, collected into a matrix of 256×128.

- T1 relaxation compared to Gd.DTPA.BSA lipid: comparable, if slightly better
- efficacy compared to Magnevist and Gd.DTPA.BSA (T1 values) (lipid in aqueous solution, clinically relevant dose): compare favourably
Substance: Gadolinium (III) 2-{4,7-Bis-Carboxymethyl-10-[(N, N-Distearylamidomethyl-N′-Amido-Methyl]-1,4,7,10-Tetra-Azacyclododec-1-yl}-Acetic Acid [Gd.DOTA.DSA]
